“Also recorded” adds a separate entry of the source.
Tests used:
Shank2^−/− mice [1] = assay: Three-chamber social interaction assay, Shank2 mice; assay type: in vivo, mouse; details: 30 mg/kg i.p., 2 hours prior to test
Description: All mice were backcrossed into a C57BL/6 background, and housed and bred in a mouse vivarium at the Korea Advanced Institute of Science and Technology (KAIST, Shank2^−/−mice) and at Academia Sinica (Tbr1^+/− mice). Pups were kept with the dam until weaning at postnatal day 21. After weaning, animals were group housed in mixed-genotype groups of 3 to 5 mice per cages, and randomly subjected to electrophysiological and behavioral experiments. Animals at 3 to 5 weeks of age were used for electrophysiological experiments; male animals at 2 to 4 months of age were used for behavioral assays. For TFL-Zn staining, male animals at 8 weeks (for Shank2^−/−mice) were used. Wild-type littermates were used as controls.
The injection was performed 2 hours before (Shank2^−/− mice and wild-type littermates), or 3 hours before (Tbr1^+/− mice and wild-type littermates) behavioral assays at the discretion of the facility.
Testing was conducted in dedicated behavioral test rooms during the light phase (three-chamber test) and the dark phase (repetitive behaviors and open field test).
In short, the assay consisted of three phases of 10 minutes duration: habituation, social interaction (Stranger1 vs. Object), and social novelty recognition (Stranger 1 vs. Stranger 2). Exploration was defined as each instance in which wild-type or mutant mouse tries to sniff Object/Stranger, or orients its nose towards and come close to object/stranger. Individual movement tracks were analyzed by Ethovision 10.0 (Noldus) and modified by custom-designed software MatLab (Mathworks) to generate heat maps. Time spent in exploration was analyzed by the researcher who was blinded to the subject genotype (in Shank2 mice), or by using the Smart Video Tracking System (Panlab, in Tbr1 mice). In addition to exploration time, the preference index, which represents a numerical difference between time spent exploring the targets (Stranger1 vs. Object, or Stranger 2 vs. Stranger 1) divided by total time spent exploring both targets, as described previously.
Two hours after CQ treatment, the mice were subjected to a three-chamber social interaction test, which compares the preference of a mouse for a stranger mouse versus a novel inanimate object.

Shank2^−/− mice [2] = assay: Repetitive behaviors (jumping, grooming) in home cage; assay type: in vivo, mouse; details: 30 mg/kg i.p.; for Grooming / Jumping: Shank2^−/− mice, 2 hours prior to testing; for Repetitive behaviors: wild-type mice
Experimental: The injection was performed 2 hours before (Shank2^−/− mice and wild-type littermates), or 3 hours before (Tbr1^+/− mice and wild-type littermates) behavioral assays at the discretion of the facility. A within-subjects design was designed with a one week washout period (FIG. 8), and divided animals into two groups, vehicle-first and clioquinol-first group, to rule out carryover effects. Each mouse received a single acute dose of vehicle or clioquinol, and underwent a single behavioral task, one task per week. Testing was conducted in dedicated behavioral test rooms during the light phase (three-chamber test) and the dark phase (repetitive behaviors and open field test). Shank2^−/− mice and their wild-type littermates in their home cages without bedding were used to measure times spent in repetitive behaviors including jumping and grooming. In this case, jumping is defined as mice planting rear feet and standing up by lifting front feet along the cage, in other words, the cage corner or a side wall, and jumping up such that both of the rear feed are separated from the bottom surface. Meanwhile, grooming is defined as stroking or scratching the face or the body with two front feet or licking a part of the body. The experiments and analysis were performed independently in a blind manner.

SMILES: Oc1c(I)cc(Cl)c2cccnc12 [clioquinol, 5-Chloro-7-Iodo-8-Hydroxyquinoline]
- Social novelty recognition (Shank2^−/− mice [1]; Shank2^−/− (KO) mice): had no effect on social novelty recognition; also recorded: did not affect the social novelty recognition
- Social novelty recognition (Shank2^−/− mice [1]; Shank2^−/− (KO) mice, listed as Clioquinol): has no effect on social novelty recognition
- Social novelty recognition (Shank2^−/− mice [1]; wild-type (WT) mice): had no effect on social novelty recognition; also recorded: did not affect the social novelty recognition
- Social novelty recognition (Shank2^−/− mice [1]; wild-type (WT) mice, listed as Clioquinol): has no effect
- Grooming (Shank2^−/− mice [2]): not influenced
- Jumping (Shank2^−/− mice [2]): not influenced
- Grooming (Shank2^−/− mice [2]; listed as CQ): has no effect on grooming
- Jumping (Shank2^−/− mice [2]; listed as CQ): fails to improve jumping
- Grooming (Shank2^−/− mice [2]; listed as Clioquinol): had no effect
- Jumping (Shank2^−/− mice [2]; listed as Clioquinol): had no effect
- Repetitive behaviors (Shank2^−/− mice [2]): did not affect repetitive behaviors
- Repetitive behaviors (Shank2^−/− mice [2]; listed as Clioquinol): had no effect

Reference: US20160120858A1 (ACADEMIA SINICA, priority 2014, published 2016)
